According to ChEMBL document CHEMBL1201862, “PubChem BioAssay data set” (2004):
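How tested: cells in 96-well plates exposed to compound for 48 hours at five concentrations. Here, GI50 denotes the concentration required for 50% inhibition of growth.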 The source made the active and inactive calls. Cut-off read from the data, not from the text of the source: active = GI50 up to about 1.1 µM and inactive = higher.

Legend:
Test in all cases: growth of human tumour cells (NCI), 48 h
MOLT-4 = tested on: MOLT-4
M14 = tested on: M14
SNB-19 = tested on: SNB-19
HL-60 = tested on: HL-60
HOP-62 = tested on: HOP-62
786-0 = tested on: 786-0
U-251 = tested on: U-251
NCI/ADR-RES = tested on: NCI/ADR-RES
Malme-3M = tested on: Malme-3M
SK-MEL-2 = tested on: SK-MEL-2
CAKI-1 = tested on: CAKI-1
K562 = tested on: K562
PC-3 = tested on: PC-3
COLO 205 = tested on: COLO 205
MDA-MB-435 = tested on: MDA-MB-435
NCI-H23 = tested on: NCI-H23
SN12C = tested on: SN12C
SK-MEL-28 = tested on: SK-MEL-28
NCI-H522 = tested on: NCI-H522
MDA-N = tested on: MDA-N

Measured: GI50

Cc1ccc(S(=O)(=O)NC(=O)Nc2nnc(S(N)(=O)=O)s2)cc1
inactive: MOLT-4 > 100 µM | M14 > 100 µM | SNB-19 > 100 µM | HL-60 > 100 µM | HOP-62 > 100 µM | 786-0 > 100 µM | U-251 > 100 µM | NCI/ADR-RES > 100 µM | Malme-3M > 100 µM | SK-MEL-2 > 100 µM | CAKI-1 > 100 µM | K562 > 100 µM | PC-3 > 100 µM | COLO 205 > 100 µM | MDA-MB-435 > 100 µM | NCI-H23 > 100 µM

COc1ccc(C[C@@H]2CN(C(=O)c3ccccc3)[C@H](Cc3ccc(O)cc3)CN2C(=O)c2ccccc2)cc1Br
inactive: MOLT-4 > 100 µM | M14 > 100 µM | SNB-19 > 100 µM | HL-60 > 100 µM | SN12C > 100 µM | HOP-62 > 100 µM | 786-0 > 100 µM | SK-MEL-28 > 100 µM | NCI/ADR-RES > 100 µM | Malme-3M > 100 µM | SK-MEL-2 > 100 µM | CAKI-1 > 100 µM | K562 > 100 µM | PC-3 55.2 µM | COLO 205 > 100 µM | MDA-MB-435 > 100 µM | NCI-H23 > 100 µM

C[n+]1c2ccccc2c(N=[N+]=[N-])c2ccccc21
inactive: MOLT-4 4.69 µM | M14 > 10 µM | SNB-19 9.18 µM | HL-60 9.18 µM | SN12C 7.03 µM | HOP-62 > 10 µM | 786-0 4.53 µM | U-251 9.93 µM | NCI-H522 8.87 µM | SK-MEL-28 > 10 µM | NCI/ADR-RES > 10 µM | Malme-3M 5.42 µM | SK-MEL-2 > 10 µM | CAKI-1 > 10 µM | K562 5.82 µM | PC-3 5.37 µM | COLO 205 4.29 µM | MDA-MB-435 7.14 µM | NCI-H23 4.22 µM

C=C(CO)[C@H]1Oc2ccc(C(C)=O)cc2[C@@H]1O
inactive: MOLT-4 > 100 µM | M14 > 100 µM | SNB-19 > 100 µM | HL-60 > 100 µM | SN12C > 100 µM | HOP-62 > 100 µM | 786-0 > 100 µM | U-251 > 100 µM | MDA-N 22.2 µM | NCI-H522 88.7 µM | SK-MEL-28 > 100 µM | Malme-3M 53.3 µM | SK-MEL-2 > 100 µM | CAKI-1 > 100 µM | K562 67.9 µM | PC-3 > 100 µM | COLO 205 > 100 µM | MDA-MB-435 36.8 µM | NCI-H23 > 100 µM

COc1ccc(CCCCl)c(C2=NCCc3ccccc32)c1
inactive: MOLT-4 32.4 µM | M14 71.3 µM | SNB-19 14.8 µM | HL-60 10.4 µM | SN12C 9.91 µM | HOP-62 33.4 µM | 786-0 89.5 µM | U-251 9.75 µM | NCI-H522 6.75 µM | SK-MEL-28 > 100 µM | NCI/ADR-RES > 100 µM | SK-MEL-2 61.7 µM | CAKI-1 > 100 µM | K562 14.6 µM | PC-3 19.5 µM | COLO 205 17.3 µM | MDA-MB-435 26.2 µM | NCI-H23 11.1 µM

O=C1/C(=C/c2cccc([N+](=O)[O-])c2)Sc2scc(-c3ccc([N+](=O)[O-])cc3)[n+]21
inactive: MOLT-4 21.1 µM | M14 60.8 µM | SNB-19 18.9 µM | SN12C 18.3 µM | HOP-62 16.6 µM | 786-0 16.4 µM | U-251 27.2 µM | MDA-N 24.5 µM | SK-MEL-28 25.5 µM | NCI/ADR-RES 19 µM | SK-MEL-2 20.2 µM | CAKI-1 20.6 µM | PC-3 30.7 µM | COLO 205 36.7 µM | MDA-MB-435 16.9 µM | NCI-H23 15.2 µM

O=C1/C(=C/c2ccc(O)cc2)CCC1CNc1ccccc1 (stereo unspecified)
inactive: MOLT-4 1.85 µM | M14 12.2 µM | SNB-19 16.3 µM | HL-60 1.96 µM | SN12C 15 µM | HOP-62 18.3 µM | 786-0 6.9 µM | U-251 16.4 µM | NCI-H522 2.4 µM | SK-MEL-28 15.4 µM | NCI/ADR-RES 19 µM | Malme-3M 15.3 µM | CAKI-1 12.5 µM | K562 1.5 µM | PC-3 11.2 µM | COLO 205 11.1 µM | MDA-MB-435 18.7 µM | NCI-H23 14.3 µM

Nc1nc(O)c(Br)c(-c2cccc([N+](=O)[O-])c2)n1
inactive: MOLT-4 > 77.4 µM | M14 > 38.8 µM | SNB-19 25.9 µM | HL-60 > 71.1 µM | SN12C > 100 µM | HOP-62 > 100 µM | 786-0 > 100 µM | U-251 > 100 µM | NCI-H522 26.4 µM | SK-MEL-28 > 100 µM | NCI/ADR-RES > 100 µM | SK-MEL-2 > 100 µM | CAKI-1 58.5 µM | K562 > 91.4 µM | PC-3 > 100 µM | COLO 205 > 100 µM | MDA-MB-435 > 100 µM | NCI-H23 40.9 µM
